This is an account of results in BindingDB's records for doi:10.1016/s0960-894x(01)00591-1 (University of Maryland, 2001).

The experiment has as its target Guanine deaminase (Oryctolagus cuniculus). Briefly: Binding affinity against Guanine deaminase (guanase) from rabbit liver was determined.

Usually Ki stands for the equilibrium dissociation constant of an inhibitor or competing ligand from its target. Lower therefore signals higher affinity.

Consider `N=c1nc(N)nc(N)c2c1N(COCCO)CN2`, for which the Ki stood at 29.7 µM.
